Laboratory results from patent US20160185774A1, “Anti-Infective Compounds” (priority 2013, published 2016).
Converted amounts (≈) assume the structure as drawn.

System: M. tuberculosis
Test: microbe, parasite or virus in culture
Type: cell-based
Details: Mycobacterium tuberculosis, 120 h; read-out: QUM (MIC80)

SMILES	MIC80
CCc1nc2ccc(Cl)cn2c1C(=O)NCc1ccc(N2CCN(C(=O)c3ccc(F)cc3)CC2)cc1 [Compound 235]	< 1 µM
CCc1nc2ccc(Cl)cn2c1C(=O)NCc1ccc(N2CCN(C(=O)Cc3ccc(F)cc3)CC2)cc1 [Compound 236]	< 1 µM
CCc1nc2ccc(Cl)cn2c1C(=O)NCc1ccc(N2CCC(C)(O)CC2)cc1 [Compound 237]	< 1 µM
CCc1nc2ccc(Cl)cn2c1C(=O)NCc1ccc(N2CCC(O)(CC)CC2)cc1 [Compound 238]	< 1 µM
CCc1nc2ccc(Cl)cn2c1C(=O)NCc1ccc(N2CCC(O)(c3ccccc3)CC2)cc1 [Compound 239]	< 1 µM
CCc1nc2ccc(Cl)cn2c1C(=O)NCc1ccc(N2CCC(C(=O)c3ccc(F)cc3)CC2)cc1 [Compound 240]	< 1 µM
CCc1nc2ccc(Cl)cn2c1C(=O)NCc1ccc(N2CCC(C(=O)c3ccc(OC(F)(F)F)cc3)CC2)cc1 [Compound 241]	< 1 µM
CCc1nc2ccc(Cl)cn2c1C(=O)NCc1ccc(N2CCC(C(=O)Cc3ccc(F)cc3)CC2)cc1 [Compound 242]	< 1 µM
CCc1nc2ccc(Cl)cn2c1C(=O)NCc1ccc(C2CCN(C(=O)c3ccc(F)cc3)CC2)cc1 [Compound 243]	< 1 µM
CCc1nc2ccc(Cl)cn2c1C(=O)NCc1ccc(/C=C/c2ccc(F)cc2)cc1 [Compound 246]	< 1 µM
CCc1nc2ccc(Cl)cn2c1C(=O)NCc1cccc(N(C)Cc2ccc(OC(F)(F)F)cc2)c1 [Compound 247]	1 to 20 µM (≈ 0.517 to 10.3 µg/mL)
CCc1nc2ccc(Cl)cn2c1C(=O)NCc1cccc(OCc2ccc(OC(F)(F)F)cc2)c1 [Compound 248]	1 to 20 µM (≈ 0.504 to 10.1 µg/mL)
CCc1nc2ccccn2c1C(=O)NCc1ccc(CC2CCOCC2)cc1 [Compound 252]	< 1 µM
CCc1nc2ccc(Cl)cn2c1C(=O)NCc1nc2ccc(Cl)cc2[nH]1 [Compound 260]	> 20 µM
CCc1nc2cc(Cl)ccn2c1C(=O)NCc1ccc2c(c1)ncn2C [Compound 272]	1 to 20 µM (≈ 0.368 to 7.36 µg/mL)
CCc1nc2ccc(Cl)cn2c1C(=O)NCc1ccc2cc[nH]c2c1 [Compound 273]	< 1 µM
CCc1nc2ccc(Cl)cn2c1C(=O)NCc1ccc2ncn(Cc3ccc(OC(F)(F)F)cc3)c2c1 [Compound 274]	1 to 20 µM (≈ 0.528 to 10.6 µg/mL)
CCc1nc2cc(Cl)ccn2c1C(=O)NCc1ccc2ncn(Cc3ccc(OC(F)(F)F)cc3)c2c1 [Compound 275]	> 20 µM
CCc1nc2cc(Cl)ccn2c1C(=O)NCc1ccc2nc[nH]c2c1 [Compound 276]	> 20 µM
CCc1nc2cc(Cl)ccn2c1C(=O)NCc1ccc(NC(=O)NC(C)(C)C)cc1 [Compound 277]	> 20 µM
CCc1nc2ccc(Cl)cn2c1C(=O)NCc1ccc(NC(=O)NC(C)(C)C)cc1 [Compound 278]	1 to 20 µM (≈ 0.428 to 8.56 µg/mL)
CCc1nc2cc(Cl)ccn2c1C(=O)NCc1csc(-c2ccc(OC(F)(F)F)cc2)n1 [Compound 279]	< 1 µM
CCc1nc2ccc(Cl)cn2c1C(=O)NCc1csc(-c2ccc(OC(F)(F)F)cc2)n1 [Compound 280]	< 1 µM
CCc1nc2c(F)cccn2c1C(=O)NCc1cccc(N2CCOCC2)c1 [Compound 281]	1 to 20 µM (≈ 0.382 to 7.65 µg/mL)
Cc1nc2cc(Cl)ccn2c1C(=O)NCc1ccc(N2CCC(c3ccc(F)cc3)CC2)cc1 [Compound 297]	< 1 µM

SMILES	MIC80
Cc1nc2cc(Cl)ccn2c1C(=O)NCc1ccc(N2CCC(c3ccc(C(F)(F)F)cc3)CC2)cc1 [Compound 298]	< 1 µM
Cc1ccc(C2CCN(c3ccc(CNC(=O)c4c(C)nc5cc(Cl)ccn45)cc3)CC2)cc1 [Compound 299]	< 1 µM
Cc1nc2cc(Cl)ccn2c1C(=O)NCc1ccc(N2CCC(c3ccc(OC(F)(F)F)cc3)CC2)cc1 [Compound 300]	< 1 µM
CCc1nc2ccc(Cl)cn2c1C(=O)NCc1ccc(C(=O)Nc2ccc(F)cc2)cc1 [Compound 301]	< 1 µM
CCc1nc2cc(Cl)ccn2c1C(=O)NCc1ccc(C(=O)Nc2ccc(F)cc2)cc1 [Compound 302]	< 1 µM
CCc1nc2ccc(Cl)cn2c1C(=O)NCc1ccc(C(=O)CN2CCOCC2)cc1 [Compound 303]	< 1 µM
CCc1nc2cc(Cl)ccn2c1C(=O)NCc1ccc(C(=O)CN2CCOCC2)cc1 [Compound 304]	1 to 20 µM (≈ 0.441 to 8.82 µg/mL)
CCc1nc2ccc(Cl)cn2c1C(=O)NCc1ccc(C(=O)N(C)c2ccc(F)cc2)cc1 [Compound 305]	1 to 20 µM (≈ 0.465 to 9.3 µg/mL)
CCc1nc2cc(Cl)ccn2c1C(=O)NCc1ccc(C(=O)N(C)c2ccc(F)cc2)cc1 [Compound 306]	1 to 20 µM (≈ 0.465 to 9.3 µg/mL)
CCc1nc2ccc(Cl)cn2c1C(=O)NCc1ccc(N2CCOCC2)c(F)c1 [Compound 307]	< 1 µM
CCc1nc2cc(Cl)ccn2c1C(=O)NCc1ccc(N2CCOCC2)c(F)c1 [Compound 308]	< 1 µM
Cc1ccc(C2CCN(c3ccc(CNC(=O)c4c(C)nc5c(F)cccn45)cc3)CC2)cc1 [Compound 309]	< 1 µM
Cc1nc2c(F)cccn2c1C(=O)NCc1ccc(N2CCC(c3ccc(C(F)(F)F)cc3)CC2)cc1 [Compound 310]	< 1 µM
Cc1nc2c(F)cccn2c1C(=O)NCc1ccc(N2CCC(c3ccc(F)cc3)CC2)cc1 [Compound 311]	< 1 µM
Cc1nc2c(F)cccn2c1C(=O)NCc1ccc(N2CCC(c3ccc(OC(F)(F)F)cc3)CC2)cc1 [Compound 312]	< 1 µM
Cc1nc2ccc(F)cn2c1C(=O)NCc1ccc(N2CCC(c3ccc(F)cc3)CC2)cc1 [Compound 313]	< 1 µM
Cc1ccc(C2CCN(c3ccc(CNC(=O)c4c(C)nc5ccc(F)cn45)cc3)CC2)cc1 [Compound 314]	< 1 µM
Cc1nc2ccc(F)cn2c1C(=O)NCc1ccc(N2CCC(c3ccc(C(F)(F)F)cc3)CC2)cc1 [Compound 315]	< 1 µM
Cc1nc2ccc(F)cn2c1C(=O)NCc1ccc(N2CCC(c3ccc(OC(F)(F)F)cc3)CC2)cc1 [Compound 316]	< 1 µM
CCc1nc2ccc(Cl)cn2c1C(=O)NCc1ccc(C(=O)N(C)Cc2ccc(F)cc2)cc1 [Compound 317]	1 to 20 µM (≈ 0.479 to 9.58 µg/mL)
CCc1nc2cc(Cl)ccn2c1C(=O)NCc1ccc(C(=O)N(C)Cc2ccc(F)cc2)cc1 [Compound 318]	1 to 20 µM (≈ 0.479 to 9.58 µg/mL)
CCc1nc2ccc(Cl)cn2c1C(=O)NCc1ccc(OCC23CC4CC(CC(C4)C2)C3)cc1 [Compound 319]	< 1 µM
CCc1nc2cc(Cl)ccn2c1C(=O)NCc1ccc(OCC23CC4CC(CC(C4)C2)C3)cc1 [Compound 320]	< 1 µM
CCc1nc2ccc(Cl)cn2c1C(=O)NCc1ccc(NC23CC4CC(CC(C4)C2)C3)cc1 [Compound 321]	< 1 µM
CCc1nc2cc(Cl)ccn2c1C(=O)NCc1ccc(NC23CC4CC(CC(C4)C2)C3)cc1 [Compound 322]	< 1 µM

SMILES	MIC80
CCc1nc2ccc(Cl)cn2c1C(=O)NCc1ccc(NC2C3CC4CC(C3)CC2C4)cc1 (stereo not drawn) [Compound 323]	< 1 µM
CCc1nc2cc(Cl)ccn2c1C(=O)NCc1ccc(NC2C3CC4CC(C3)CC2C4)cc1 (stereo not drawn) [Compound 324]	< 1 µM
Cc1nc2ccc(Cl)cn2c1C(=O)NCc1ccc(N2CCC(c3ccc(F)cc3)CC2)cc1 [Compound 325]	< 1 µM
Cc1ccc(C2CCN(c3ccc(CNC(=O)c4c(C)nc5ccc(Cl)cn45)cc3)CC2)cc1 [Compound 326]	< 1 µM
Cc1nc2ccc(Cl)cn2c1C(=O)NCc1ccc(N2CCC(c3ccc(C(F)(F)F)cc3)CC2)cc1 [Compound 327]	< 1 µM
Cc1nc2ccc(Cl)cn2c1C(=O)NCc1ccc(N2CCC(c3ccc(OC(F)(F)F)cc3)CC2)cc1 [Compound 328]	< 1 µM
CCc1nc2cc(Cl)ccn2c1C(=O)NCc1cccc(C(=O)NCc2ccc(F)cc2)c1 [Compound 329]	1 to 20 µM (≈ 0.465 to 9.3 µg/mL)
CCc1nc2cc(Cl)ccn2c1C(=O)NCc1cccc(C(=O)N(C)Cc2ccc(F)cc2)c1 [Compound 330]	1 to 20 µM (≈ 0.479 to 9.58 µg/mL)
CCc1nc2ccc(Cl)cn2c1C(=O)NCc1ccc2oc(CN3CCOCC3)nc2c1 [Compound 331]	1 to 20 µM (≈ 0.454 to 9.08 µg/mL)
CCc1nc2cc(Cl)ccn2c1C(=O)NCc1ccc2oc(CN3CCOCC3)nc2c1 [Compound 332]	1 to 20 µM (≈ 0.454 to 9.08 µg/mL)
CCc1nc2cc(Cl)ccn2c1C(=O)NCc1ccc(-c2ccc(C(=O)O)cc2)cc1 [Compound 335]	< 1 µM
CCc1nc2ccc(Cl)cn2c1C(=O)NCc1ccc(N2CCC(C(=O)OCCN3CCOCC3)CC2)cc1 [Compound 336]	< 1 µM
CCc1nc2cc(Cl)ccn2c1C(=O)NCc1ccc(N2CCC(C(=O)OCCN3CCOCC3)CC2)cc1 [Compound 337]	< 1 µM
CCC1N=C2C=CC(Cl)=CN2C1C(=O)NCc1ccc2oc(C)nc2c1 (stereo not drawn) [Compound 338]	< 1 µM
CCc1nc2cc(Cl)ccn2c1C(=O)NCc1ccc2oc(C)nc2c1 [Compound 339]	1 to 20 µM (≈ 0.369 to 7.38 µg/mL)
CCc1nc2ccc(Cl)cn2c1C(=O)NCc1ccc(N2CC[C@@H](Oc3ccc(Cl)cc3)C2)cc1 [Compound 340]	< 1 µM
CCc1nc2cc(Cl)ccn2c1C(=O)NCc1ccc(N2CC[C@@H](Oc3ccc(Cl)cc3)C2)cc1 [Compound 341]	< 1 µM
CCc1nc2ccc(Cl)cn2c1C(=O)NCc1ccc(N2CC[C@H](Oc3ccc(Cl)cc3)C2)cc1 [Compound 342]	< 1 µM
CCc1nc2cc(Cl)ccn2c1C(=O)NCc1ccc(N2CC[C@H](Oc3ccc(Cl)cc3)C2)cc1 [Compound 343]	< 1 µM
CCc1nc2ccc(Cl)cn2c1C(=O)NCc1ccc(N2CCC(c3ccc(C(=O)OC)cc3)CC2)cc1 [Compound 344]	< 1 µM
CCc1nc2ccc(Cl)cn2c1C(=O)NCc1ccc(N2CCC(c3ccc(CO)cc3)CC2)cc1 [Compound 345]	< 1 µM
CCc1nc2ccc(Cl)cn2c1C(=O)NCc1ccc(N2CCC(c3ccc(C=O)cc3)CC2)cc1 [Compound 346]	< 1 µM
Cc1nc2cc(F)ccn2c1C(=O)NCc1ccc(N2CCC(c3ccc(Cl)cc3)CC2)cc1 [Compound 348]	< 1 µM
Cc1nc2cc(F)ccn2c1C(=O)NCc1ccc(N2CCC(c3ccc(C(F)(F)F)cc3)CC2)cc1 [Compound 349]	< 1 µM
Cc1nc2cc(F)ccn2c1C(=O)NCc1ccc(N2CCC(c3ccc(OC(F)(F)F)cc3)CC2)cc1 [Compound 350]	< 1 µM

System: not given
Test: not given
Details: not given

SMILES	melting point
CCc1nc2ccc(Cl)cn2c1C(=O)NCc1ccc(N2CCC(C(=O)Cc3ccc(F)cc3)CC2)cc1 [Compound 244]	216.2 to 220.7 °C
CCc1nc2ccc(Cl)cn2c1C(=O)NCc1cccc(N(C)Cc2ccc(OC(F)(F)F)cc2)c1 [Compound 247]	> 142.3 °C (dec.)
CCc1nc2ccc(Cl)cn2c1C(=O)NCc1cccc(OCc2ccc(OC(F)(F)F)cc2)c1 [Compound 248]	> 142.7 °C (dec.)
